What is called AC50 is the midpoint of the concentration-response curve, whichever way the signal moves. What is called EC50 is the concentration giving half of the maximal effect.

Data set [1] in a line: Luminescence Cell-Based Dose Retest to Confirm Inhibitors of Cancer Stem Cells. [Related pubchem assays (depositor defined):AID2717, AID2721]. It counts as functional. To be noted: Homo sapiens.
A short description of data set [2]: viability loss of HMLE_sh_eGFP cells – cell-based, luminescence, counter-screen for HMLE_sh_ECad selective toxicity project, dose response (AID 463074).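 Note: HMLE human mammary epithelial cells expressing control shRNA against eGFP.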 It counts as functional, Homo sapiens. Background: A counterscreen serves to expose hits that act by an unwanted route or on another target.
The target in another data set is Cytochrome P450 2D6 (Homo sapiens, UniProt P10635).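 Note: CYP2D6 member of a cytochrome P450 panel assay.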
Cytochrome P450 2D6, sequence (P10635 whole entry): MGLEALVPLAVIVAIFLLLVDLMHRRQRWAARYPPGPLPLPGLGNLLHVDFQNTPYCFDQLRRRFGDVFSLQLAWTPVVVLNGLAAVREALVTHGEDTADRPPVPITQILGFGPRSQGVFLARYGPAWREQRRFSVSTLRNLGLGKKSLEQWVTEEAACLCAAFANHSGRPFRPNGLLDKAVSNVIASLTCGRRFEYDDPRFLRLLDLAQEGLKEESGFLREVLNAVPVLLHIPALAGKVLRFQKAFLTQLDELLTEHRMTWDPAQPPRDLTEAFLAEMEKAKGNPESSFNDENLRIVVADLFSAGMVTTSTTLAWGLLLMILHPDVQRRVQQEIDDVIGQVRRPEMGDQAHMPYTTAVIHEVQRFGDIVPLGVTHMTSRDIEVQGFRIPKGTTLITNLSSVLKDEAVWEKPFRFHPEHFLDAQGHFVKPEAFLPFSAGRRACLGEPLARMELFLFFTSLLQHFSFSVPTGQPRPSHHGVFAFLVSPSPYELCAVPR
The target in data set [3] is T1, Cytochrome P450 3A4 (Homo sapiens, UniProt P08684).
T1 sequence (P08684 whole entry): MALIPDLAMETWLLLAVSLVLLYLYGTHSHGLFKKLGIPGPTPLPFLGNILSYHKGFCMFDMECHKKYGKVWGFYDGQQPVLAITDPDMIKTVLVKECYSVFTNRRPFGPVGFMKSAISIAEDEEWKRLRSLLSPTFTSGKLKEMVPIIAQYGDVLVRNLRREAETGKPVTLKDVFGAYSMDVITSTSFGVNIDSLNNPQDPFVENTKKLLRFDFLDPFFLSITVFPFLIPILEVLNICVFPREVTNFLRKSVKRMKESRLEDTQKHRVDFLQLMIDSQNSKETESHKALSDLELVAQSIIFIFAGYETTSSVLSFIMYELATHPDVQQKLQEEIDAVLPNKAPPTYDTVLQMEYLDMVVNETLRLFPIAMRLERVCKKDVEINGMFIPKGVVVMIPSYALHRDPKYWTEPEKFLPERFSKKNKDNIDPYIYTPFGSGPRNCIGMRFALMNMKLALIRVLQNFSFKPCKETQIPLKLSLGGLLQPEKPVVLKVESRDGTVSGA
Data set [4] addresses Peroxisome proliferator-activated receptor gamma/Nuclear receptor coactivator 1 (Homo sapiens, UniProt P37231). Put plainly: TR-FRET dose response biochemical High Throughput Screening assay for agonists of the steroid receptor coactivator 1 (SRC-1) recruitment by the peroxisome proliferator-activated receptor gamma (PPAR gamma): non-selective agonists. [Related pubchem assays (depositor defined):AID1300, AID1808, AID504735, AID631]. In kind it is protein assay. On the technique in general: TR-FRET usually uses a lanthanide donor and a delayed reading to cut background.

For data set [5], the target named is Peroxisome proliferator-activated receptor gamma/Nuclear receptor coactivator 3 (Homo sapiens, UniProt P37231). Put plainly: TR-FRET dose response biochemical High Throughput Screening assay for agonists of the steroid receptor coactivator 3 (SRC-3) recruitment by the peroxisome proliferator-activated receptor gamma (PPAR gamma): non-selective agonists. [Related pubchem assays: 1301 (Confirmation screen.), 1048 (Primary screen.)]. In kind it is functional.
Peroxisome proliferator-activated receptor gamma/Nuclear receptor coactivator 3, sequence (P37231 whole entry): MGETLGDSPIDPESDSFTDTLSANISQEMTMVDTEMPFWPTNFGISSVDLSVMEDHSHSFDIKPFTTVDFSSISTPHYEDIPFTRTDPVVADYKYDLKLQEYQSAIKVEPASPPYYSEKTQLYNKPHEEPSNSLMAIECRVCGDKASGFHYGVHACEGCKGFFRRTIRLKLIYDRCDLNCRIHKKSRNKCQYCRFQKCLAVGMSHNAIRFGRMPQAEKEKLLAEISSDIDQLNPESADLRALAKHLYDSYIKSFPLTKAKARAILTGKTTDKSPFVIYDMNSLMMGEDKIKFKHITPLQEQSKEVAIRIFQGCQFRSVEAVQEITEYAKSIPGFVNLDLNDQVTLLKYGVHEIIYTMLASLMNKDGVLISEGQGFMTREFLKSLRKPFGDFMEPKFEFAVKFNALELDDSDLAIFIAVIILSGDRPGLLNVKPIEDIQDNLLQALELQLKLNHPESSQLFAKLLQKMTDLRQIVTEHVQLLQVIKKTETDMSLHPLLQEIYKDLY
Peroxisome proliferator-activated receptor gamma/Nuclear receptor coactivator 3, sequence (Q9Y6Q9 whole entry, further chain): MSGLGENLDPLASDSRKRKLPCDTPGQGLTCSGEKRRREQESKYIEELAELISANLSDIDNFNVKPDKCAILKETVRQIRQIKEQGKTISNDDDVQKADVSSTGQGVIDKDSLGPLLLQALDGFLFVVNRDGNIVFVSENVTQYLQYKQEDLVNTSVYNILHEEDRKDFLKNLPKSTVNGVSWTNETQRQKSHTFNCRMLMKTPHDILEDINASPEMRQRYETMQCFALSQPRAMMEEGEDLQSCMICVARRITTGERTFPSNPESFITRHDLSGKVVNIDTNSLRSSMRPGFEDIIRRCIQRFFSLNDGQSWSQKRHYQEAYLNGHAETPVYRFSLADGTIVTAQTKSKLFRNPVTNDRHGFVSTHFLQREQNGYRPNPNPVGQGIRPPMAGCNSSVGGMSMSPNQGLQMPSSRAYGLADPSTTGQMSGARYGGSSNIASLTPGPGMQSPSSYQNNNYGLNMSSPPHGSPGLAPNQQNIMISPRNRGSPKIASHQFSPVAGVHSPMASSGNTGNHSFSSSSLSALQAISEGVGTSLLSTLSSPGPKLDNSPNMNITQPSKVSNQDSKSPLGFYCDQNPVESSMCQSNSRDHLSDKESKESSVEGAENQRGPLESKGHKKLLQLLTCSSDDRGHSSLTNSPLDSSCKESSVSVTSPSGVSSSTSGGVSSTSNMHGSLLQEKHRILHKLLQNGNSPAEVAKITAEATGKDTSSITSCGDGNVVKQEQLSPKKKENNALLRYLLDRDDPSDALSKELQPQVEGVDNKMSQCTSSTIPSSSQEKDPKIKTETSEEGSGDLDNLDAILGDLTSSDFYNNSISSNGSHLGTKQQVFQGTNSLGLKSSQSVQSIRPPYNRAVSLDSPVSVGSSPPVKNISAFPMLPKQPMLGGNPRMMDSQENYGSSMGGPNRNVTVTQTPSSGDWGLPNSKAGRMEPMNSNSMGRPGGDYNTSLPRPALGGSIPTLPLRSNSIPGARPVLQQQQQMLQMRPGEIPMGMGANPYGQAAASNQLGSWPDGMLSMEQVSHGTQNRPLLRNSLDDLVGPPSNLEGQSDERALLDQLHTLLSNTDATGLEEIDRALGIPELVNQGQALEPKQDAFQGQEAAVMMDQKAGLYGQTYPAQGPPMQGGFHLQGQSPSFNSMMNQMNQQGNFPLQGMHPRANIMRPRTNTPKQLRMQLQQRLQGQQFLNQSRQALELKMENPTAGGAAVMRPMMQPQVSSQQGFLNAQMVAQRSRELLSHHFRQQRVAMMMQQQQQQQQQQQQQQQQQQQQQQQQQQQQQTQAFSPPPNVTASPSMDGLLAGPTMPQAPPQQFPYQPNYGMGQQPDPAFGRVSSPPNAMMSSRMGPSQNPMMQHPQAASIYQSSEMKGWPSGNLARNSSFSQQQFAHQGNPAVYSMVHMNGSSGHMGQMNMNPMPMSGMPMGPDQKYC

Data set [6] addresses Peroxisome proliferator-activated receptor gamma/Nuclear receptor coactivator 2 (Homo sapiens, UniProt P37231). Put plainly: TR-FRET dose response biochemical High Throughput Screening assay for agonists of the steroid receptor coactivator 2 (SRC-2) recruitment by the peroxisome proliferator-activated receptor gamma (PPAR gamma): non-selective agonists. [Related pubchem assays: 1297, 1032 ]. It counts as functional.

In another data set the target is T2, Bcl-2-related protein A1 (Mus musculus, UniProt Q07440).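 Note: confirmatory dose–response counterscreen on Bfl-1, used to check hits from a UBC13 polyubiquitin inhibitor campaign.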
T2 sequence (Q07440 whole entry): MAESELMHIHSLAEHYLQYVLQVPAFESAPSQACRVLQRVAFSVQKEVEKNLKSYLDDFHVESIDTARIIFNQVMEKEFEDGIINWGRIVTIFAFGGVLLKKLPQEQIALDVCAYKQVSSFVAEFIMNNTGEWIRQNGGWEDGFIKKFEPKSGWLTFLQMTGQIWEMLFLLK
In kind it is functional.

The target in data set [7] is T3, Ubiquitin-conjugating enzyme E2 N (Homo sapiens, UniProt P61088).
T3 sequence (P61088 whole entry): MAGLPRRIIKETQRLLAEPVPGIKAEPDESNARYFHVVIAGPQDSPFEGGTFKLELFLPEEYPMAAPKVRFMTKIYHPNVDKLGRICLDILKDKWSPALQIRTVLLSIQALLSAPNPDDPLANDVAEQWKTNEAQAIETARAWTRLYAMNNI
In kind it is functional.

Data set [8] addresses T3, Ubiquitin-conjugating enzyme E2 N. It counts as functional. The source holds these as a separate data set.
A further data set concerns CHO-K1. Briefly: Counterscreen for antagonists of the orexin 1 receptor (OX1R; HCRTR1): Homogeneous time resolved fluorescence (HTRF)-based cell-based dose response assay to identify antagonists of the parental CHO-K1 cell line. [Related pubchem assays (depositor defined):AID434989, AID435008, AID463079, AID485270, AID492963, AID492964, AID492965, AID493232, AID504699, AID504701]. In kind it is functional. To be noted: Cricetulus griseus.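 Note: potency for inhibition of ATP-stimulated IP1 production as antagonists.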

Data set [9] in a line: Counterscreen for antagonists of the orexin 1 receptor (OX1R; HCRTR1): Fluorescence-based cell-based high throughput dose response assay to identify antagonists of the parental CHO cell line. [Related pubchem assays (depositor defined):AID434989, AID435008, AID463079, AID485270, AID492963, AID492964, AID492965, AID493232, AID504699, AID504701]. It counts as functional.
Data set [10] has as its target T4, Orexin/Hypocretin receptor type 1 (Homo sapiens, UniProt O43613).
T4 sequence (O43613 whole entry): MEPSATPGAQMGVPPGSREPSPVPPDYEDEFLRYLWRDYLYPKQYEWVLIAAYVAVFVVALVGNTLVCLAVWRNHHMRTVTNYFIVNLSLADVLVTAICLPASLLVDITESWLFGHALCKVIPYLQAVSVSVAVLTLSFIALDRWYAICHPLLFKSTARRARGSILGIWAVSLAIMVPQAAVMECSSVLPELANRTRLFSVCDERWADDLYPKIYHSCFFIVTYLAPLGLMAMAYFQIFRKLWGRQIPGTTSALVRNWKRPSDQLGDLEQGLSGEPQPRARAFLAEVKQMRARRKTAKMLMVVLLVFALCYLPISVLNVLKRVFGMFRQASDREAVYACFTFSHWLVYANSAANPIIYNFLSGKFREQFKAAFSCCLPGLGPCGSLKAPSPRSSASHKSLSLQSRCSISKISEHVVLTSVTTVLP
Briefly: Homogeneous Time Resolved Fluorescence (HTRF)-based cell-based high throughput dose response assay for antagonists of the orexin 1 receptor (OX1R; HCRTR1). [Related pubchem assays (depositor defined):AID434989, AID435008, AID463079, AID485270, AID492963, AID492964, AID492965, AID493232, AID504717, AID504718]. It counts as functional.

In data set [11] the target is T4, Orexin/Hypocretin receptor type 1. Put plainly: Fluorescence-based cell-based high throughput dose response assay for antagonists of the orexin 1 receptor (OX1R; HCRTR1). [Related pubchem assays (depositor defined):AID434989, AID435008, AID463079, AID485270, AID492963, AID492964, AID492965, AID493232, AID504717, AID504718]. In kind it is functional.
Data set [12] has as its target T1, Cytochrome P450 3A4. The source holds these as a separate data set.
Data set [13] concerns the target T5, Mannose-6-phosphate isomerase (Homo sapiens, UniProt P34949).
T5 sequence (P34949 whole entry): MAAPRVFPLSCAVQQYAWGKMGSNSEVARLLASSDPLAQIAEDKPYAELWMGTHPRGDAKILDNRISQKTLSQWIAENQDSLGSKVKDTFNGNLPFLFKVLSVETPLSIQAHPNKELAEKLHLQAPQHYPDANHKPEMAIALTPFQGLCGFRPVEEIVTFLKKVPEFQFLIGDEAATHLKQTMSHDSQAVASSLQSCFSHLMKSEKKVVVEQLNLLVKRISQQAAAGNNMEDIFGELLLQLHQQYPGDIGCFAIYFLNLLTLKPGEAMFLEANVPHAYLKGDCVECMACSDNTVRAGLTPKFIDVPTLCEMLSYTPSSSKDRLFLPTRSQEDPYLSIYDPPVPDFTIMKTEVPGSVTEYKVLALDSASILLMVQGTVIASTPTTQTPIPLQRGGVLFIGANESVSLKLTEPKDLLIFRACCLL
Put plainly: MPI enzyme activity inhibition – biochemical, fluorescence intensity, coupled assay, primary screen (AID 1209).

The nature of data set [14]: Trypanosoma cruzi growth suppression in host cells – NIH3T3 host cells, beta-gal luminescence, confirmation (AID 2044).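 Note: intracellular parasites grown in NIH/3T3 mouse fibroblasts as host cells; luminescent beta-galactosidase reporter signal from transgenic T. cruzi replicating inside host cells; inhibitors lower the luminescence signal.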 In kind it is functional, cell-based.
Data set [15] is described as follows: NIH3T3 cell viability loss – ATP luminescence, mouse fibroblasts, counter-screen, dose response (AID 2010).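 Note: cells exposed to compound for about 90 hours before reading.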 In kind it is functional, cell-based.
A further data set deals with INS1. Briefly: INS-1E survival protection against cytokine death – cell-based, luminescence, retest, dose response (AID 449756).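 Note: cell death triggered by IL-1 beta plus TNF-alpha plus IFN-gamma mixture; protective hits raise ATP signal compared with cytokine alone wells.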 It counts as functional. Conditions: Rattus norvegicus.
The next data set concerns the target Protein Wnt-3a (Mus musculus, UniProt P27467). Put plainly: antagonism of Wnt3a pathway luciferase reporter – Wnt-LIGHT cells, luminescence, selectivity assay for Gli-SUFU antagonist project, dose response (AID 651570).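 Note: Wnt-LIGHT reporter cells stimulated with conditioned medium from Wnt3a-producing cells.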 It counts as functional. Conditions: read-out: IC50_Mean.
A further data set concerns HeLa. Put plainly: ATP-based viability loss in HeLa cells – cell-based, CellTiter-Glo luminescence, cherry-pick samples, cytotoxicity control for MITF activator project, dose response (AID 540259). In kind it is functional. Conditions: Homo sapiens. (Cellular ATP, detected with luciferase, serves as a proxy for viable cell number.)
The target of another data set is Cytochrome P450 2C9 (Homo sapiens, UniProt P11712).
Cytochrome P450 2C9, sequence (P11712 whole entry): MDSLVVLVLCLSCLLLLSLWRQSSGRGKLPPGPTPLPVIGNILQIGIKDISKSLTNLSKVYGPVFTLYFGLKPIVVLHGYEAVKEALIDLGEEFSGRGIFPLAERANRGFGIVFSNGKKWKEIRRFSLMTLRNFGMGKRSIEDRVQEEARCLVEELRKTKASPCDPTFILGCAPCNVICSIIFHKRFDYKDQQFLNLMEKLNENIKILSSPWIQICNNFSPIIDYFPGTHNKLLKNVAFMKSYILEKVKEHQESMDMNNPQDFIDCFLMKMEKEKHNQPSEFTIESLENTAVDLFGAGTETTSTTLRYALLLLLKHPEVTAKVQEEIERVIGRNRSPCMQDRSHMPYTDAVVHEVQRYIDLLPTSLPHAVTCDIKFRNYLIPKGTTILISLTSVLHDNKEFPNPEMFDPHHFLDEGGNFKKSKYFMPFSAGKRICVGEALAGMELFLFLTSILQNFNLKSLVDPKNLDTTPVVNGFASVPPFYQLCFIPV
In data set [16] the target is T6, Rac GTPase-activating protein 1 (Homo sapiens, UniProt Q9H0H5).
T6 sequence (Q9H0H5 whole entry): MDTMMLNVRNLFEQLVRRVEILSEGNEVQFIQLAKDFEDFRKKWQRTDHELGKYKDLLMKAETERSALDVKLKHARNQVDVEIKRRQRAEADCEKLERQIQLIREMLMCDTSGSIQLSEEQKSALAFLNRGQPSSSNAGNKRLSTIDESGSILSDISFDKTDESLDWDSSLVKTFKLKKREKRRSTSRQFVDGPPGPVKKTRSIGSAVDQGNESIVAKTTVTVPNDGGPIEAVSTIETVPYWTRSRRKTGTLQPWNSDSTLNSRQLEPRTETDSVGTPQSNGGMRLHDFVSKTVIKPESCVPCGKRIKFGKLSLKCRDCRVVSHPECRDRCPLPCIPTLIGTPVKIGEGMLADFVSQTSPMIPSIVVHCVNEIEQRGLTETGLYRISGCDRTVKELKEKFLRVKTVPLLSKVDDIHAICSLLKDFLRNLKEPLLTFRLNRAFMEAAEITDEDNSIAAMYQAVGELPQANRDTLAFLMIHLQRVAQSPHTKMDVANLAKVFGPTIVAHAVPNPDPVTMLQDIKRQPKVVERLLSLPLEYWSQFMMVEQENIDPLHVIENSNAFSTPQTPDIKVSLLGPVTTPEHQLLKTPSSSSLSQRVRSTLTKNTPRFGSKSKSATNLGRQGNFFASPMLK
Briefly: blockers of MgcRacGAP-driven Rac1 GTP hydrolysis – biochemical, ADP Hunter fluorescence, primary and confirmatory, confirmation (AID 624330). It counts as functional.

Another data set has as its system Escherichia coli. Briefly: microbe, parasite or virus in culture.

Calls of active or inactive are those of the source. A value given as a limit tells only on which side of the number the result lay.

Protein Wnt-3a, sequence (P27467 whole entry): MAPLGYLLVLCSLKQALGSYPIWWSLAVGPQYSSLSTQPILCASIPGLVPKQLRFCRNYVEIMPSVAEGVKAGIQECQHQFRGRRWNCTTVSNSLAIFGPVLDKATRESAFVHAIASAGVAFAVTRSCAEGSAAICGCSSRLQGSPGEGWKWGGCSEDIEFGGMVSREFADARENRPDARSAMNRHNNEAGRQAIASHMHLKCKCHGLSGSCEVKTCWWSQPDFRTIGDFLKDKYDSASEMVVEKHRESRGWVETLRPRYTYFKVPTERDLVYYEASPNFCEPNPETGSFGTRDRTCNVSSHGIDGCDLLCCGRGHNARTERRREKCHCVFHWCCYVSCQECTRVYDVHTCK

As to `CCCCCOc1ccc(OC(=O)c2ccncc2)cc1`, the AC50 in [1] is 7.57 µM (active); in data set [2] it was 21.2 µM (active); at Cytochrome P450 2D6, 3.98 µM (inconclusive); at Cytochrome P450 3A4 [3] it was 25.1 µM (inconclusive).
On to `CCn1c(=O)cc(SCC(=O)NCCCN2CCN(c3ccc(F)cc3)CC2)c2ccccc21`, for which the EC50 in [4] was > 79.4 µM (inactive); in data set [5], > 79.4 µM (not active); in data set [6] it was > 79.4 µM (not active). Moreover, the IC50 at Bcl-2-related protein A1 is > 20 µM (inactive); in data set [7], 4.95 µM (active); in [8] it was 5.57 µM (active).
For `Cc1cc(C)nc(N=C(N)Nc2ccc(F)c([N+](=O)[O-])c2)n1`, the IC50 with CHO-K1 is 11.6 µM (inactive); in [9], 17.8 µM (inactive); in data set [10], 10.1 µM (inactive); in [11], 15.1 µM (inactive).
As to `Cn1cccc1C(=O)N1CCC2(CC1)CCN(c1ncccn1)CC2`, the half-maximal activity concentration (AC50) result on Cytochrome P450 3A4 [12] is “inconclusive”.
For `Cn1c(=O)c(-c2ccc(F)cc2)nc2cnc(N3CCOCC3)nc21`, the AC50 entry at Cytochrome P450 3A4 [12] is recorded as “inconclusive”.
On to `CC[N+]1=C(C)C(C)(C)c2cc(C)ccc21`, for which the IC50 in data set [13] was > 50 µM (not active); on Protein Wnt-3a it was 0.892 µM (active). The results for the EC50 in [14] and in data set [15] were 1.49 µM (active) and > 60 µM (not active), respectively. Further, the concentration at half-maximal activity (AC50) in data set [1] is 24 µM (active); in [2], 64.4 µM (active); in the data set on INS1 it was 5.84 µM (active).
Take `NC(=O)CC(NC(=O)Cc1cccc2ccccc12)c1ccc(NC2CCCCC2)c([N+](=O)[O-])c1` (stereo not given): the figures for the AC50 in [1] and in data set [2] were 5.79 µM (active) and 27.9 µM (active), respectively.
`Cc1ccc(C(=O)NCCc2ccc(F)cc2)s1`: the AC50 in the data set with HeLa was 43.2 µM (active).
With `COC(=O)c1cc(C(=O)c2cccc(Cl)c2Cl)cn1C`, the AC50 entry on Cytochrome P450 3A4 [12] and at Cytochrome P450 2C9 was “inconclusive” each time.
Consider `Cc1nc2cc(NC(=O)COc3ccccc3C#N)ccc2n1-c1ccccc1`, for which the IC50 in the data set with CHO-K1 is > 66.2 µM (inactive); in data set [9] it was > 49.7 µM (inactive); in [10], 1.61 µM (active); in data set [11] it was 3.45 µM (active).
As for `C(=N\Nc1ccccn1)/c1ccc(N2CCOCC2)cc1`, the IC50 in data set [16] is 134 µM (active). In addition, the half-maximal activity concentration (AC50) with Escherichia coli is 62 µM (active).
As for `CCc1ccc(O)c(-c2cc(C(=O)Nc3cccnc3)[nH]n2)c1`, the AC50 in the data set with HeLa is > 350 µM (inactive).
